Assay [1] has as its system Ear oedema induced by arachidonic acid in mice. Put plainly: Ear oedema induced by arachidonic acid in mice. The settings on record: female NMRI mice, topical, 30 minutes before arachidonic acid (3 mg), measured 60 minutes later. Type of assay: in vivo, NMRI strain). The procedure:
3. Ear oedema induced by arachidonic acid in mice
Inflammation of ear was induced by arachidonic acid using a modified version of the procedure described by Young et al. [Young, J. M., Spires, D. A., Bedord, C. J., Wagner, B., Ballaron, S. J., De Young, L. M.: The mouse ear inflammatory response to topical arachidonic acid, J. Invest. Dermatol. 82, 67-371 (1984)]. The experiments were carried out in female mice from the NMRI strain weighing 25 to 30 g (8 animals/groups). Drugs were applied topically in acetone or ethanol by an automatic pipette in 10 μl volumes to both the inner and outer surfaces of the ear. 30 minutes after drug or vehicle administration both sides of the left ear were brushed with 3 mg of arachidonic acid in 20 μl of acetone and both sides of the right ear were treated with 20 μl of acetone only. 60 minutes later the animals were killed by aether, then a disk of 7 mm diameter was cut off both ears. The mass of each disk was measured by an analytical scale and the mean of the difference of the left and right ears was calculated for every group. ID50 values were determined by plotting the log-dose versus percentage response as compared to vehicle-treated animals.

In assay [2] the target is T1, 5-lipoxygenase (5-LO) enzyme (Homo sapiens, UniProt P09917).
T1 construct: the enzyme in the cytosol was partially purified by ammonium sulphate fractionation; endogenous in cells; host or cells: human polymorphonuclear leukocytes (sonicated, cytosol, ammonium sulphate fraction)
T1 sequence (P09917 1-674): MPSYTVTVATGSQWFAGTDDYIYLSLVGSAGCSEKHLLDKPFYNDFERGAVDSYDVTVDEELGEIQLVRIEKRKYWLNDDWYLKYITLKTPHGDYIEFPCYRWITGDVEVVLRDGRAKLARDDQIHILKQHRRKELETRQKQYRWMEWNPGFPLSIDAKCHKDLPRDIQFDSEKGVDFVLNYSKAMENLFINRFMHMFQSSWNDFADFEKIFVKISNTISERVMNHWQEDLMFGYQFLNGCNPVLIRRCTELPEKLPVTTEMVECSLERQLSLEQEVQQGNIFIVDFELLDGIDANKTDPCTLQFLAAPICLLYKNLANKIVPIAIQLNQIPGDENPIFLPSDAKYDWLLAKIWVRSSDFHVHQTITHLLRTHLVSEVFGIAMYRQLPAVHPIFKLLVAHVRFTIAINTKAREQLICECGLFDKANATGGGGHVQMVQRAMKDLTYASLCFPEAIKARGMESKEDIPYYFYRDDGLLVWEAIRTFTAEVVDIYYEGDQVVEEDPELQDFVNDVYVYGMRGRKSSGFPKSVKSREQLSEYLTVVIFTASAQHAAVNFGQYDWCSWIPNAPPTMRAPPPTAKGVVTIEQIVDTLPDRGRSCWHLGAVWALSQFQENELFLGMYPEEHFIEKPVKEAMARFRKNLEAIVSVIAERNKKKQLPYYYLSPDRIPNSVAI
As to the kind of experiment: Determination of 5-LO enzyme activity of human leukocytes by measuring their leukotriene B4 production (whole cell). Type of assay: cell-based. The settings on record: human PMN leukocytes, LTB4 release, ionophore A-23187 0.001 mM, pH 7.2, 37° C., 15 minutes, RIA; read-out: 5-lipoxygenase enzyme inhibition, in whole cell, IC50. The source says: 2. Determination of 5-LO enzyme activity of human leukocytes by measuring their leukotriene B4 production
The method of Mia et al. was applied [H. Mita, Y. Yui and T. Shida: Effect of AA-861, a 5-lipoxygenase inhibitor on leukotriene synthesis in human polymorphonuclear leukocytes and on cyclooxygenase and 12-lipoxygenase activities in human platelets, Allergy 41, 493-498, (1986)]. The principle of the experiment is as follows: the calcium ionophore A-23187 induces the synthesis and the release of LTB4 by human polymorphonuclear leukocytes. The amount of LTB4 released into the incubation medium reflects the 5-LO enzyme activity of the intact cells. The incubation medium was Hank's balanced medium (HBBS) supplemented with 17 mM of Tris-HCl (pH 7.2), 1.22 mM of CaCl2, 1 mM of MgCl2, 0.001 mM of A-23187 and 10^4 PMN leukocyte per ml reaction mixture. The reaction was started with the addition of ionophore then incubated at 37° C. for 15 minutes. The reaction was stopped by adding 5 mM of EDTA and by chilling the samples in an ice bath. The samples were centrifuged and the amount of LTB4 in the supernatant was determined by radioiimmunoassay (RIA).

The target of assay [3] is T1, 5-lipoxygenase (5-LO) enzyme. Put plainly: Measurement of 5-LO enzyme activity in cell free system prepared from human leukocytes (direct). The following applies: human polymorphonuclear leukocytes, 0.02 mM arachidonic acid, pH 7.5, 37° C., 5 minutes, read-out: 5-lipoxygenase enzyme inhibition, direct, IC50. Type of assay: biochemical. The procedure:
1. Measurement of 5-LO enzyme activity in cell free system prepared from human leukocytes
The enzyme activity was measured according to the modified method of Ochi et al. [K. Ochi, T. Yoshimoto, S. Yamamoto, K. Taniguchi, T. Miyamoto: Arachidonate 5-lipoxygenase of guinea pig peritoneal polymorphonuclear leukocytes, J. Biol. Chem. 258, 5754-5758 (1983)]. The principle of the method is as follows: in in vitro systems, during the reaction catalysed by 5-LO 5-hydroxyperoxy-6,8,11,14-eicosatetraenoic acid (5-HPETE) is formed from arachidonic acid, then it is transformed to 5-hydroxy-6,8,11,14-eicosatetraenoic acid (5-HETE). Both 5-HPETE and 5-HETE have absorption maximum at 236 nm, therefore it is possible to determine the activity of 5-LO enzyme by measuring the change of absorption at 236 nm. 5-LO was prepared from human polymorphonuclear leukocytes by a simple purification procedure. The cells were washed and lysed by a sonic disintegrator. The lysate was centrifuged and the enzyme in the cytosol was partially purified by ammonium sulphate fractionation (the enzyme precipitates at 50% saturation). The reaction mixture (50 mM tris-HCl pH=7.5, 2mM CaCl2, 0.1 mM ATP, 0.02 mM arachidonic acid) was incubated at 37° C. for 5 minutes. The reaction was started with the addition of arachidonic acid and stopped by the addition of 10 mM of citric acid. The thus-obtained 5-HPETE and 5-HETE were extracted with a 6:4 mixture of diethyl ether and hexane and the absorption of the organic phase was measured by spectrophotometry at […].

For assay [4], the system named is PAF lethality in mice. Put plainly: PAF induced anaphylactic shock test in mice (PAF lethality). Type of assay: in vivo. The settings on record: Mus musculus, ip, 1 h; male NMRI mice, intraperitoneal, 30 minutes before intravenous PAF 100 μg/kg, mortality at one hour; read-out: PAF lethality in mice ID50. The procedure:
4. PAF induced anaphylactic shock test in mice
A modification of the method of Young et al. [Young, J. M., Maloney, P. J., Jubb, S. N. and Clark, J. S.: Pharmacological investigation of the mechanism of platelet-activating factor mortality in the mouse, Prostaglandins 30, 545-551 (1985)] was used. The experiments were carried out in male NMRI mice weighing 20-25 g (10 animals/group). The test compounds were suspended in 0.4% methyl cellulose and administered intraperitoneally in a volume of 10 ml/kg. The mice of the control group received only vehicle. 30 minutes later the animals received intravenous PAF in a dose of 100 μg/kg (5 ml/kg). Mortality was determined one hour after PAF administration. Every experiment was repeated three times (n=30). The ratio of mortality of the treated animals was compared to that of the control mice. ID50 values were calculated by linear regression analysis.

A word on the IC50: it is the concentration at which inhibition is half-maximal.

Structures are written as SMILES. Where only a bound is given, the exact number is not on record here.

For the compound `Cc1c(C)c2c(c(C)c1O)C1CCCCCC1O2` (stereo not drawn) [Example 10, 1,2,4-Trimethyl-4b,6,7,8,9,9a-hexahydro-5H-10-oxabenzo[a]azulene-3-ol], the “Arachidonic acid ear oedeme in mice ID50” value in assay [1] came out at 0.16 mg/ear. Moreover, the IC50 in assay [2] came to 70 nM; in assay [3], 99 nM. Also, the ED50 in assay [4] worked out at 22.5 mg/kg.

For the compound `Cc1c(C)c2c(c(C)c1O)[C@@H]1CC=C[C@@H]1O2` (relative stereo) [Example 1, cis-4,6,7-Trimethyl-3a,8a-dihydro-3H-8-oxacyclopenta[a]indene-5-ol], the IC50 is 680 nM in assay [2] and 74 nM in assay [3]. Further, the ED50 in assay [4] turned out to be 51.7 mg/kg.

Turning to `O=C1CCN(c2ccccc2)N1` [Phenidone, 1-phenyl-3-pyrazolidinone, reference compound], the “Arachidonic acid ear oedeme in mice ID50” value in assay [1] came out at 0.18 mg/ear. Also, the ED50 in assay [4] was found to be 14.2 mg/kg.

As for `Cc1c(O)cc2c(c1C)O[C@H]1C=CC[C@@H]21` (relative stereo) [Example 3, cis-6,7-Dimethyl-3a,8a-dihydro-3H-8-oxacyclopenta[a]indene-5-ol], the half-maximal inhibitory concentration (IC50) in assay [2] turned out to be 500 nM; in assay [3], 5500 nM.

As to `COc1cc2c(cc1O)[C@@H]1CCC[C@@H]1O2` (relative stereo) [Example 6, cis-6-Methoxy-2,3,3a,8a-tetrahydro-1H-8-oxacyclopenta[a]indene-5-ol], in assay [1], the “Arachidonic acid ear oedeme in mice ID50” value worked out at 0.23 mg/ear. Also, in assay [3], the IC50 was 1200 nM. Besides, in assay [4], the ED50 turned out to be 100 mg/kg.

As for `Cc1c(C)c2c(c(C)c1O)[C@@H]1CCC[C@@H]1O2` (relative stereo) [Example 2, cis-4,6,7-Trimethyl-2,3,3 a,8a-tetrahydro-1H-8-oxacyclopenta[a]indene-5-ol], the “Arachidonic acid ear oedeme in mice ID50” value in assay [1] is 0.18 mg/ear. Besides, the IC50 came to 50 nM in assay [2] and 390 nM in assay [3]. The ED50 in assay [4] was 16.2 mg/kg.

For the compound `CCOc1cc2c(cc1O)[C@@H]1CCC[C@@H]1O2` (relative stereo) [Example 8, cis-6-Ethoxy-2,3,3a,8a-tetrahydro-1H-8-oxa-cyclopenta[a]indene-5-ol], in assay [3], the half-inhibitory concentration (IC50) was determined as 490 nM. Besides, the ED50 in assay [4] was 45 mg/kg.

As for `COc1cc2c(cc1O)[C@@H]1CC=C[C@@H]1O2` (relative stereo) [Example 5, cis-6-Methoxy-3a,8a-dihydro-3H-8-oxacyclopenta[a]indene-5-ol], the “Arachidonic acid ear oedeme in mice ID50” value in assay [1] is reported as 0.18 mg/ear. Besides, the figures for the IC50 in assay [2] and in assay [3] were 300 nM and 2700 nM, respectively.

On to `Cc1c(C)c2c(c(C)c1O)[C@H]1CCC=C[C@H]1O2` (relative stereo) [Example 23, cis-1,3,4-Trimethyl-5a,8,9,9a-tetrahydrodibenzofurane-2-ol], for which the 50% inhibitory concentration (IC50) was found to be 140 nM in assay [2] and 540 nM in assay [3]. The ED50 in assay [4] was found to be 23.2 mg/kg.

Take `Cc1c(O)cc2c(c1C)O[C@H]1CCC[C@@H]21` (relative stereo) [Example 4, cis-6,7-Dimethyl-2,3,3a,8a-tetrahydro-1H-8-oxacyclopenta[a]indene-5-ol]: the figures for the IC50 in assay [2] and in assay [3] were 300 nM and 1200 nM, respectively. In addition, the ED50 in assay [4] amounted to 65.2 mg/kg.

For `CC1=C(C)C(=O)C(CCCCC#CCCCC#CCO)=C(C)C1=O` [AA-861, 2-(12-hydroxy-5,10-dodecadiinyl)-3,5,6-trimethyl-p-benzoquinone, reference compound], the “Arachidonic acid ear oedeme in mice ID50” value in assay [1] turned out to be 0.13 mg/ear. Also, the figures for the concentration for half-maximal inhibition (IC50) in assay [2] and in assay [3] were 1100 nM and 4100 nM, respectively. Further, the ED50 in assay [4] was 58.9 mg/kg.

`CC(Cc1ccc(O)c(O)c1)C(C)Cc1ccc(O)c(O)c1` (stereo not drawn) [NDGA, 1,4-bis(3,4-dihydroxyphenyl)-2,3-dimethylbutane, reference compound]: the “Arachidonic acid ear oedeme in mice ID50” value in assay [1] is recorded as above 1.0 mg/ear. Further, the ED50 in assay [4] is 29.2 mg/kg.

For `CCOc1cc2c(cc1O)[C@@H]1CC=C[C@@H]1O2` (relative stereo) [Example 7, cis-6-Ethoxy-3a,8a-dihydro-3H-8-oxacyclopenta[a]indene-5-ol], in assay [1], the “Arachidonic acid ear oedeme in mice ID50” value is 0.11 mg/ear. Besides, the IC50 came to 300 nM in assay [2] and 1700 nM in assay [3]. Also, in assay [4], the ED50 was 27.3 mg/kg.

The values above are taken from patent US5716986A, “Oxaindene derivatives and process for the preparation thereof” (priority 1995, dated 1998).
